According to US20040148991A1, “Method and apparatus for dissolving urea” (priority 2003, published 2004):

Test: Urea dissolution time in water at 50/50 wt/wt urea/water concentration
Type: physicochemical
Settings: for dissolution time faster than control test: versus control 12 minutes
Protocol: The next step of the method of the present invention comprises mixing the urea prills and the water so as to form a mixture. After the mixture is formed, the mixture of urea and water is then allowed to stand for an amount of time sufficient to allow the temperature of the mixture to reach a predetermined temperature. In a preferred embodiment, the predetermined temperature is between about 19° C. and 24° C., and more preferably, about 23° C. The amount of time required for the temperature of the mixture to reach the predetermined temperature depends upon the amount of mixture in mixing container 12. During this time period in which the mixture is allowed to stand, the temperature of the mixture is monitored with temperature sensor 20. When the temperature of the mixture reaches the predetermined temperature, mixing of the urea/water mixture is resumed and continues until the urea completely dissolves in the water. The time for urea dissolution is measured from the moment the mixing resumes to the point in time when the urea becomes completely dissolved in the water. The solution is outputted from mixing container 12 via outlet 14.
A series of tests were conducted in order to determine the urea dissolution time when various amounts of water were initially added to the urea and wherein additional amounts of water were subsequently added to attain the 50/50 wt/wt urea/water concentration. A control test was first conducted in order to obtain reference data. About 40 grams of urea prills were mixed with an equal amount of water, i.e. 40 grams (or milliliters). The mixture was not allowed to stand for any amount of time. Thus, the mixing step began as soon as 40 grams of urea and 40 grams of water were added to mixing container 12. The time for the urea to completely dissolve was about twelve (12) minutes and is indicated by numeral 100 in the curve of FIG. 2.
In the first test, about 40 grams of urea and 10 grams of water were deposited into mixing container 12. The mixture was then mixed or stirred, and allowed to stand until the temperature of the mixture reached about room temperature or about 23° C. Next, an amount of water necessary to achieve a urea/water concentration of 50/50 wt/wt was added to the mixture. Since the initial amount of water was 10 grams , 30 grams of water were added to the mixture to achieve the desired 50/50 wt/wt concentration. The urea and water were mixed again. The urea completely dissolved in eight (8) minutes after the 50/50 wt/wt urea/water concentration was achieved. This is indicated by numeral 102 on the curve in FIG. 2. The dissolution time was about 33% faster than the control test dissolution time of twelve (12) minutes.
In the next test, about 40 grams of urea and 15 grams of water were deposited into mixing container 12. The mixture was then mixed or stirred, and allowed to stand until the temperature of the mixture reached about room temperature or about 23° C. Next, an amount of water necessary to achieve a 50/50 wt/wt urea/water concentration was added to the mixture. Since the initial amount of water was 15 grams, 25 grams of water were added to the mixture to achieve the desired 50/50 wt/wt urea/water concentration. The urea and water were mixed again. The urea completely dissolved in seven (7) minutes after the 50/50 wt/wt urea/water concentration was achieved. This is indicated by numeral 104 on the curve in FIG. 2. The dissolution time was about 42% faster than the control test dissolution time of twelve (12) minutes.
In the next test, about 40 grams of urea and 20 grams of water were deposited into mixing container 12. The mixture was then mixed or stirred, and allowed to stand until the temperature of the mixture reached about room temperature or about 23° C. Next, an amount of water necessary to achieve a urea/water concentration of 50/50 wt/wt was added to the mixture. […]

- dissolution time faster than control test (Test 1: 10 g water initially): about 33%
- time for the urea to completely dissolve (Test 1: 40 g urea + 10 g water initially, stand until about 23° C., then 30 g water added to 50/50 wt/wt): 8 min
- dissolution time faster than control test (Test 2: 15 g water initially): about 42%
- time for the urea to completely dissolve (Test 2: 40 g urea + 15 g water initially, stand until about 23° C., then 25 g water added to 50/50 wt/wt): 7 min
- dissolution time faster than control test (Test 3: 20 g water initially): about 58%
- time for the urea to completely dissolve (Test 3: 40 g urea + 20 g water initially, stand until about 23° C., then 20 g water added to 50/50 wt/wt): 5 min
- dissolution time faster than control test (Test 4: 25 g water initially): about 67%
- time for the urea to completely dissolve (Test 4: 40 g urea + 25 g water initially, stand until about 23° C., then 15 g water added to 50/50 wt/wt): 4 min
- time for the urea to completely dissolve (Test 5: 40 g urea + 40 g water, mixed, stand until about 23° C., mixed again): 3 min
- dissolution time faster than control test (Test 5: 40 g water initially): about 75%
- time for the urea to completely dissolve (control test: 40 g urea prills + 40 g water, mixture not allowed to stand): ~12 min
Structure (SMILES): NC(N)=O [urea]
